According to doi:10.1101/2021.04.08.439011v1 (biorxiv, 2021):

Tests used:
Settings in all cases: 0.1 µM; binder
AXL = AXL (Homo sapiens, UniProt P30530)
BRSK2 = BRSK2 (Homo sapiens, UniProt Q8IWQ3)
CDK9 = CDK9 (Homo sapiens, UniProt P50750)
CDKL2 = CDKL2 (Homo sapiens, UniProt Q92772)
ERK4 = ERK4 (Homo sapiens, UniProt P31152)
FGFR3(G697C) = FGFR3(G697C) (Homo sapiens, UniProt P22607, G697C)
FGFR4 = FGFR4 (Homo sapiens, UniProt P22455)
HASPIN = HASPIN (Homo sapiens, UniProt Q8TF76)
LIMK1 = LIMK1 (Homo sapiens, UniProt P53667)
LRRK2 = LRRK2 (Homo sapiens, UniProt Q5S007)
MAP3K1 = MAP3K1 (Homo sapiens, UniProt Q13233)
MARK1 = MARK1 (Homo sapiens, UniProt Q9P0L2)
MEK3 = MEK3 (Homo sapiens, UniProt P46734)
MET(M1250T) = MET(M1250T) (Homo sapiens, UniProt P08581, M1250T)
MRCKA = MRCKA (Homo sapiens, UniProt Q5VT25)
NEK2 = NEK2 (Homo sapiens, UniProt P51955)
NEK5 = NEK5 (Homo sapiens, UniProt Q6P3R8)
PAK6 = PAK6 (Homo sapiens, UniProt Q9NQU5)
PDGFRB = PDGFRB (Homo sapiens, UniProt P09619)
PFTAIRE2 = PFTAIRE2 (Homo sapiens, UniProt Q96Q40)
PIK3CA(H1047L) = PIK3CA(H1047L) (Homo sapiens, UniProt P42336, H1047L)
PIK3CA(M1043I) = PIK3CA(M1043I) (Homo sapiens, UniProt P42336, M1043I)
PIK3CD = PIK3CD (Homo sapiens, UniProt O00329)
PIK4CB = PIK4CB (Homo sapiens, UniProt Q9UBF8)
SRC = SRC (Homo sapiens, UniProt P12931)
TAOK1 = TAOK1 (Homo sapiens, UniProt Q7L7X3)
TEC = TEC (Homo sapiens, UniProt P42680)
VPS34 = VPS34 (Homo sapiens, UniProt Q8NEB9)
WNK1 = WNK1 (Homo sapiens, UniProt Q9H4A3)
WNK3 = WNK3 (Homo sapiens, UniProt Q9BYP7)
ZAP70 = ZAP70 (Homo sapiens, UniProt P43403)

Sequence of MEK3 (P46734 whole entry): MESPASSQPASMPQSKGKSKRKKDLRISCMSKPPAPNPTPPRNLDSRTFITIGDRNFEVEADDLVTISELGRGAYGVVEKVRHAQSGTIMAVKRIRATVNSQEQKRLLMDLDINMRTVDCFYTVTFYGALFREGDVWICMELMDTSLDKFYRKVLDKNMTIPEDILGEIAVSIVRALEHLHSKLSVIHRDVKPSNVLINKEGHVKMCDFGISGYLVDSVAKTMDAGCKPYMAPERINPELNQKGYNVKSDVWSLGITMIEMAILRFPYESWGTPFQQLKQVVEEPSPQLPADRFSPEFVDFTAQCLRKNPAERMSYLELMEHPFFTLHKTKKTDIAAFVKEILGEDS
Sequence of MAP3K1 (Q13233 whole entry): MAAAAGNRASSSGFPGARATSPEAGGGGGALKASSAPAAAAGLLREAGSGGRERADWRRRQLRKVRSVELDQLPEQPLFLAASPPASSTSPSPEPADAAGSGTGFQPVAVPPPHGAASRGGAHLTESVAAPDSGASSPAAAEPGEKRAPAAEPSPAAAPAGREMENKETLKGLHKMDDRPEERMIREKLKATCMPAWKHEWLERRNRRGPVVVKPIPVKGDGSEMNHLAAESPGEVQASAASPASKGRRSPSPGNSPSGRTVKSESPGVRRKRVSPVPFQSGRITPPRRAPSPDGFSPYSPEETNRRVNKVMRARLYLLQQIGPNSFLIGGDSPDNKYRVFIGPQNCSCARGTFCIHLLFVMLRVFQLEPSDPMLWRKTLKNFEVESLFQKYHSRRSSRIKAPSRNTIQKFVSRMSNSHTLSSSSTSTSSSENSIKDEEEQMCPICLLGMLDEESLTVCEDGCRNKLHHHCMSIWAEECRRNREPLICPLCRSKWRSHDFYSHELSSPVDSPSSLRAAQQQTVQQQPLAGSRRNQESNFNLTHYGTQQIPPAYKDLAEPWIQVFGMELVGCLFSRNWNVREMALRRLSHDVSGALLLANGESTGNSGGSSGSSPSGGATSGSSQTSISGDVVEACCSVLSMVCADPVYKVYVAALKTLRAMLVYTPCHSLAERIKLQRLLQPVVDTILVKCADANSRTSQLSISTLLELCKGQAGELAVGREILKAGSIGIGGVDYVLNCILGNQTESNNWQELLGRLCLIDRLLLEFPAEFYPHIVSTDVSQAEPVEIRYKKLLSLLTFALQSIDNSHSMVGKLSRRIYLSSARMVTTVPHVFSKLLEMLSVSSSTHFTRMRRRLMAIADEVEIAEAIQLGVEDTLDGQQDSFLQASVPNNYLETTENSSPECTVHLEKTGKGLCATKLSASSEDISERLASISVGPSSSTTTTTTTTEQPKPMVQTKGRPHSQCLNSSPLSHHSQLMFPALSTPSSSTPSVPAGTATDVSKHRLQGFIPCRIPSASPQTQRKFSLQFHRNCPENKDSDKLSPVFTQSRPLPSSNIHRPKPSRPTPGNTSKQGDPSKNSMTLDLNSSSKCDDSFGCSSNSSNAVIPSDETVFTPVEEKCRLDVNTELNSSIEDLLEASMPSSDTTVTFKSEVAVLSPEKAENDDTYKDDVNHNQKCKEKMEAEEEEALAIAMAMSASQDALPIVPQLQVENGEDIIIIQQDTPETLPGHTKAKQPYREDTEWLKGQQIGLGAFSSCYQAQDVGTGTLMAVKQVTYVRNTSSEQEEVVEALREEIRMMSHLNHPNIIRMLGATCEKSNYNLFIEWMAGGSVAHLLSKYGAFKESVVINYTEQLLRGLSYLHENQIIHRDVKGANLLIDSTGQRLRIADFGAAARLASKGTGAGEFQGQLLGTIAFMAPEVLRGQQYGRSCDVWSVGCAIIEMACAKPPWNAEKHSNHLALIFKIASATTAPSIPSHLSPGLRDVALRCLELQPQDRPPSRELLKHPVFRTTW
Sequence of CDKL2 (Q92772 whole entry): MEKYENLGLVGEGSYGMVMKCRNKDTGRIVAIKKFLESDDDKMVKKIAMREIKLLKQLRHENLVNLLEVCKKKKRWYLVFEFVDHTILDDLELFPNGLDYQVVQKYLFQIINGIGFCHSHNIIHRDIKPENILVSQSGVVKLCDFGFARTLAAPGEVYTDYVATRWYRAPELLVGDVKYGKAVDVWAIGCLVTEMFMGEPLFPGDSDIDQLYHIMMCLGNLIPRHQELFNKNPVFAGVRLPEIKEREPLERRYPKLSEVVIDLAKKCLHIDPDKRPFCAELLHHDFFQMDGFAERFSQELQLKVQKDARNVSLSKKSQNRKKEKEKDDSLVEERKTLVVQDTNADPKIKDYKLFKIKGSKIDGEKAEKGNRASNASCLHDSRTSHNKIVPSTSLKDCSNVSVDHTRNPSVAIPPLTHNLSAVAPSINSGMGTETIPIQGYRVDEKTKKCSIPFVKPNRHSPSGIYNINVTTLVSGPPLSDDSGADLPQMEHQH
Sequence of MARK1 (Q9P0L2 whole entry): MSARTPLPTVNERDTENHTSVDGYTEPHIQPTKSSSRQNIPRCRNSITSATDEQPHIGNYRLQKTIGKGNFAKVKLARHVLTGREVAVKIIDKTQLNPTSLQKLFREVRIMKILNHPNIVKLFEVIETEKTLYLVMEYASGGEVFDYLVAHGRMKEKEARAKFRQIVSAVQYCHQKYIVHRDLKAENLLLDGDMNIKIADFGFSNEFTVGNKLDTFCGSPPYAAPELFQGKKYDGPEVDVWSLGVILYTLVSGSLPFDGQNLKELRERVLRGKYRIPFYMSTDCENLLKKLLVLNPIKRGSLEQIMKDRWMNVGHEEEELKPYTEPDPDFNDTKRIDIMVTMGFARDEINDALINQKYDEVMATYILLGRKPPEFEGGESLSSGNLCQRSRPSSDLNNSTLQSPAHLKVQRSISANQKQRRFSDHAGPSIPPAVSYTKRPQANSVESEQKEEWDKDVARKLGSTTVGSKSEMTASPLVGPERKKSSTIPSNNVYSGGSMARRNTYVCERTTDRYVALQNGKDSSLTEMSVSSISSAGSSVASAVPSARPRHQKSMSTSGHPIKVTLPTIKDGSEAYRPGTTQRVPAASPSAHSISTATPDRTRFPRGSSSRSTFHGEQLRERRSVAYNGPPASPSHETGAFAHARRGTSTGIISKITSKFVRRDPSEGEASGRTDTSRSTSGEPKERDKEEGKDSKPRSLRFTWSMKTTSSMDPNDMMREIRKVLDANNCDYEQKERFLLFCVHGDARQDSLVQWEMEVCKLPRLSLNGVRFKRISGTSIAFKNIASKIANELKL
Sequence of VPS34 (Q8NEB9 whole entry): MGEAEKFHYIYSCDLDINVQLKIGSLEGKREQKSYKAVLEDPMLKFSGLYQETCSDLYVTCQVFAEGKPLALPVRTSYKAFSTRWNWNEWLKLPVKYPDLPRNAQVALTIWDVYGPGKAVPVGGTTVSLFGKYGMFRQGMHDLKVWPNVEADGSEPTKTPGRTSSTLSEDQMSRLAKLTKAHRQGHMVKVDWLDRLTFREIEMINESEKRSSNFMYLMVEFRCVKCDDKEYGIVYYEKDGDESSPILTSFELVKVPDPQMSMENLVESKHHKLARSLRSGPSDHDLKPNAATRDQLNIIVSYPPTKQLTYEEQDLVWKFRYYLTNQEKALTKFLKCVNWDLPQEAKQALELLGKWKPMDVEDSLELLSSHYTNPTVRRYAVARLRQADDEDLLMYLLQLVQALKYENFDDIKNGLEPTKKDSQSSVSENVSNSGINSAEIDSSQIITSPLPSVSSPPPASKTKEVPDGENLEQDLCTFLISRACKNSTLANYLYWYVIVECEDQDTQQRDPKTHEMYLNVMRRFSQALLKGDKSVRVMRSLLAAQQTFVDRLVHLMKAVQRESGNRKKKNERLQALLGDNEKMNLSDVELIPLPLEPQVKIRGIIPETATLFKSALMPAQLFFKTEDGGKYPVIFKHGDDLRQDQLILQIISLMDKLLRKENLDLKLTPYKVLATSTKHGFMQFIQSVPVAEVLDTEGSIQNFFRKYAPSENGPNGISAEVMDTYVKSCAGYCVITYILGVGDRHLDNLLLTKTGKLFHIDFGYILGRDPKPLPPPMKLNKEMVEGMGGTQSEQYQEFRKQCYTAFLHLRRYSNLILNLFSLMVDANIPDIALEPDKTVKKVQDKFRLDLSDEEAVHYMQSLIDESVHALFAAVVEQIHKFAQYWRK
Sequence of AXL (P30530 whole entry): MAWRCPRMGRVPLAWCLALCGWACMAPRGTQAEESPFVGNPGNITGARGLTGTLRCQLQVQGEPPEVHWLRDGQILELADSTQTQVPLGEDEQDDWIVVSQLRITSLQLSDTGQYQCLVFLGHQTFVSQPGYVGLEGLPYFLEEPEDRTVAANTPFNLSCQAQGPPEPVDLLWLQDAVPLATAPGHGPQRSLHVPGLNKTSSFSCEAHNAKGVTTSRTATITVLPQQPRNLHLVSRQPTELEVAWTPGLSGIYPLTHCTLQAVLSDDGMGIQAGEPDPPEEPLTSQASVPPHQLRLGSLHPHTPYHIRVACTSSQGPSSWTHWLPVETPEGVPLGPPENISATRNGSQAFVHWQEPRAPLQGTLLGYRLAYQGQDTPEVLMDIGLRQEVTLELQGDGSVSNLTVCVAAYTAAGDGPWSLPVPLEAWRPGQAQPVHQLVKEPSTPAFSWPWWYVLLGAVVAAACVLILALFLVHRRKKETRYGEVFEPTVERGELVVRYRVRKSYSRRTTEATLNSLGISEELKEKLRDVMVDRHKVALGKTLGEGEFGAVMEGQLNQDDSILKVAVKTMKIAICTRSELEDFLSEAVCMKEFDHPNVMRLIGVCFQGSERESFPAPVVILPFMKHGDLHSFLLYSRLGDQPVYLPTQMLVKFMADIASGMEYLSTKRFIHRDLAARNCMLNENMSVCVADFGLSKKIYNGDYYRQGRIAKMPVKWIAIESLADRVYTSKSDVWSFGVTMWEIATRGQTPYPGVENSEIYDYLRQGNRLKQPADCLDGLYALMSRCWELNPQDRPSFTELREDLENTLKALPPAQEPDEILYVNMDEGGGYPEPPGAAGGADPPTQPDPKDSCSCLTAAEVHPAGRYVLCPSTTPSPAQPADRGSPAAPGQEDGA

CNc1ncc2cc(-c3ccc(-c4cccc(C)n4)cc3Cl)c(=O)n(C[C@H]3OC[C@H](N)CO3)c2n1 [compound 6, G-5555]
Percent Control (AXL): 100% | Percent Control (BRSK2): 100% | Percent Control (CDK9): 100% | Percent Control (CDKL2): 100% | Percent Control (ERK4): 100% | Percent Control (FGFR3(G697C)): 99% | Percent Control (FGFR4): 100% | Percent Control (HASPIN): 87% | Percent Control (LIMK1): 93% | Percent Control (LRRK2): 83% | Percent Control (MAP3K1): 81% | Percent Control (MARK1): 100% | Percent Control (MEK3): 75% | Percent Control (MET(M1250T)): 76% | Percent Control (MRCKA): 100% | Percent Control (NEK2): 100% | Percent Control (NEK5): 100% | Percent Control (PAK6): 92% | Percent Control (PDGFRB): 97% | Percent Control (PFTAIRE2): 100% | Percent Control (PIK3CA(H1047L)): 100% | Percent Control (PIK3CA(M1043I)): 76% | Percent Control (PIK3CD): 53% | Percent Control (PIK4CB): 97% | Percent Control (SRC): 100% | Percent Control (TAOK1): 100% | Percent Control (TEC): 100% | Percent Control (VPS34): 86% | Percent Control (WNK1): 100% | Percent Control (WNK3): 100% | Percent Control (ZAP70): 100%
